This is an account of results in ChEMBL document CHEMBL5042544, “Discovery of a Potent and Selective ATAD2 Bromodomain Inhibitor with Antiproliferative Activity in Breast Cancer Models” (J Med Chem, 2022).

For orientation: IC50 means the concentration that gives 50% inhibition. The term Kd denotes the free concentration of one partner at which half of the binding sites on the other are occupied at equilibrium, for simple one-to-one binding.

Each structure is given as a SMILES string. Bounds are passed on as bounds.

In assay [1] the target is T1, ATPase family AAA domain-containing protein 2 (Homo sapiens, UniProt Q6PL18).
T1 sequence (Q6PL18 whole entry): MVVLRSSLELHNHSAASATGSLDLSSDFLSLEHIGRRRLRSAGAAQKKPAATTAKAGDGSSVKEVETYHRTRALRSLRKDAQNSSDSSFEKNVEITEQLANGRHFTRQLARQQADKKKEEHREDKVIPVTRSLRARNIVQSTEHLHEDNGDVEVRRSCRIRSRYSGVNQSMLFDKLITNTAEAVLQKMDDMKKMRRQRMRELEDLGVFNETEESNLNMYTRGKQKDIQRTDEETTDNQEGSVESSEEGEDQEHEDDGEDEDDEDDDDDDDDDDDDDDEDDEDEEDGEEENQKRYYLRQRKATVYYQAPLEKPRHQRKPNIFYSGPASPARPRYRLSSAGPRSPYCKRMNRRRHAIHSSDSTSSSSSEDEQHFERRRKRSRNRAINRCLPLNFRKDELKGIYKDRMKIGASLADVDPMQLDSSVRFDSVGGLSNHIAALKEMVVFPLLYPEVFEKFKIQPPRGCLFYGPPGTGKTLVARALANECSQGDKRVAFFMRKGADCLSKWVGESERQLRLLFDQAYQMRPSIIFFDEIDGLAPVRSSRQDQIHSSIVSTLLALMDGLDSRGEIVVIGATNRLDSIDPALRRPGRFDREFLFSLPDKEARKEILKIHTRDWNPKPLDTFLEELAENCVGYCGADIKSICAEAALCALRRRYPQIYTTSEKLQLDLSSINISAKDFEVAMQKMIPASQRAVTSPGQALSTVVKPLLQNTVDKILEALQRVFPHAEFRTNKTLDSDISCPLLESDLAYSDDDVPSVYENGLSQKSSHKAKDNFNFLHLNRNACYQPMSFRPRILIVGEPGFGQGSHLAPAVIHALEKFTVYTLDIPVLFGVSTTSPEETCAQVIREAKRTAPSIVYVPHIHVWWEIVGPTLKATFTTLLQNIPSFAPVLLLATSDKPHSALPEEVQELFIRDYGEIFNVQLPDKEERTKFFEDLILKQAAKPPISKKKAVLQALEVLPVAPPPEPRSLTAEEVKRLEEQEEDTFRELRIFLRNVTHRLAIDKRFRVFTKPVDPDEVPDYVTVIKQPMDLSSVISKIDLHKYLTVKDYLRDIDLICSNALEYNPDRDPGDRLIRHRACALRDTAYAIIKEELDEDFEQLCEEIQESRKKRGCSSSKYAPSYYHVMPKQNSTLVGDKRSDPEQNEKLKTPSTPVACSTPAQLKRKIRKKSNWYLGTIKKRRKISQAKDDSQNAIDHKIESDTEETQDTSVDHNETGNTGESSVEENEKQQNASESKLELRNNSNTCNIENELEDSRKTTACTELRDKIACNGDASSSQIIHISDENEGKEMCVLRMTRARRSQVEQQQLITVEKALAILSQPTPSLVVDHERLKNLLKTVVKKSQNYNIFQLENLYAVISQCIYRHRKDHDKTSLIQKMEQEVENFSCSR
The assay can be described thus: Displacement of Halo-tagged Histone H3.3 from Nanoluc-ATAD2 BD (962 to 1119 residues) (unknown origin) transfected in human HCT116 cells incubated for 18 hrs in presence of efflux inhibitor verapamil by NanoBRET assay. It counts as cell-based, HCT-116.

For assay [2], the target named is Bromodomain-containing protein 7 (Homo sapiens) (UniProt Q9NPI1). Put plainly: Binding affinity to human BRD7 bromodomain assessed as residual activity at 300 nM by BROMOscan method relative to control.
Assay [3] concerns the target Bromodomain and PHD finger-containing protein 3 (Homo sapiens) (UniProt Q9ULD4). Put plainly: Binding affinity to human […] bromodomain assessed as residual activity at 300 nM by BROMOscan method relative to control.
Assay [4] has as its target Histone acetyltransferase KAT2B (Homo sapiens, UniProt Q92831). The assay can be described thus: Binding affinity to human PCAF bromodomain assessed as residual activity at 300 nM by BROMOscan method relative to control.
Assay [5] addresses SWI/SNF-related matrix-associated actin-dependent regulator of chromatin subfamily A member 2 (Homo sapiens, UniProt P51531). Put plainly: Binding affinity to human SMARCA2 bromodomain assessed as residual activity at 300 nM by BROMOscan method relative to control.
For assay [6], the target named is Chromatin remodeling regulator CECR2 (Homo sapiens, UniProt Q9BXF3). The assay can be described thus: Binding affinity to human CECR2 bromodomain assessed as dissociation constant by BROMOscan method.
In assay [7] the target is Histone acetyltransferase p300 (Homo sapiens, UniProt Q09472). The assay can be described thus: Binding affinity to human EP300 bromodomain assessed as dissociation constant by BROMOscan method.

Bromodomain-containing protein 7 (Homo sapiens), sequence (Q9NPI1 whole entry): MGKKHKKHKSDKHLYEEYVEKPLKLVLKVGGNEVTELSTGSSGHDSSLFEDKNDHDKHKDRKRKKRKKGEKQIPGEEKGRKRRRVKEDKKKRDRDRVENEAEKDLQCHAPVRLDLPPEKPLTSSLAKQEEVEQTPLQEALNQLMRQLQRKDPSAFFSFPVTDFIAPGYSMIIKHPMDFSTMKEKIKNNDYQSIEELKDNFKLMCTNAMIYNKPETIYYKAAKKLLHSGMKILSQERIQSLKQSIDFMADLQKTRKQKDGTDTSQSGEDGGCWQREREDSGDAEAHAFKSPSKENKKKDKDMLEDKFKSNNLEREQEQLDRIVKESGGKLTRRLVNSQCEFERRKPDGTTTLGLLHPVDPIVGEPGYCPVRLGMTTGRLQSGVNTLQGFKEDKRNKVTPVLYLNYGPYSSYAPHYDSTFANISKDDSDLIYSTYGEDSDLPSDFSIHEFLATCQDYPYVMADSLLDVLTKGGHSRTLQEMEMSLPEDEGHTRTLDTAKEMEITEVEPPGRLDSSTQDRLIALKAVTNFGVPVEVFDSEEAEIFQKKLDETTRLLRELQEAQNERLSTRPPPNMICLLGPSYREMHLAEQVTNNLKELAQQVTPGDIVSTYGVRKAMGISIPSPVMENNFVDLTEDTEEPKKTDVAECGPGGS
Chromatin remodeling regulator CECR2, sequence (Q9BXF3 whole entry): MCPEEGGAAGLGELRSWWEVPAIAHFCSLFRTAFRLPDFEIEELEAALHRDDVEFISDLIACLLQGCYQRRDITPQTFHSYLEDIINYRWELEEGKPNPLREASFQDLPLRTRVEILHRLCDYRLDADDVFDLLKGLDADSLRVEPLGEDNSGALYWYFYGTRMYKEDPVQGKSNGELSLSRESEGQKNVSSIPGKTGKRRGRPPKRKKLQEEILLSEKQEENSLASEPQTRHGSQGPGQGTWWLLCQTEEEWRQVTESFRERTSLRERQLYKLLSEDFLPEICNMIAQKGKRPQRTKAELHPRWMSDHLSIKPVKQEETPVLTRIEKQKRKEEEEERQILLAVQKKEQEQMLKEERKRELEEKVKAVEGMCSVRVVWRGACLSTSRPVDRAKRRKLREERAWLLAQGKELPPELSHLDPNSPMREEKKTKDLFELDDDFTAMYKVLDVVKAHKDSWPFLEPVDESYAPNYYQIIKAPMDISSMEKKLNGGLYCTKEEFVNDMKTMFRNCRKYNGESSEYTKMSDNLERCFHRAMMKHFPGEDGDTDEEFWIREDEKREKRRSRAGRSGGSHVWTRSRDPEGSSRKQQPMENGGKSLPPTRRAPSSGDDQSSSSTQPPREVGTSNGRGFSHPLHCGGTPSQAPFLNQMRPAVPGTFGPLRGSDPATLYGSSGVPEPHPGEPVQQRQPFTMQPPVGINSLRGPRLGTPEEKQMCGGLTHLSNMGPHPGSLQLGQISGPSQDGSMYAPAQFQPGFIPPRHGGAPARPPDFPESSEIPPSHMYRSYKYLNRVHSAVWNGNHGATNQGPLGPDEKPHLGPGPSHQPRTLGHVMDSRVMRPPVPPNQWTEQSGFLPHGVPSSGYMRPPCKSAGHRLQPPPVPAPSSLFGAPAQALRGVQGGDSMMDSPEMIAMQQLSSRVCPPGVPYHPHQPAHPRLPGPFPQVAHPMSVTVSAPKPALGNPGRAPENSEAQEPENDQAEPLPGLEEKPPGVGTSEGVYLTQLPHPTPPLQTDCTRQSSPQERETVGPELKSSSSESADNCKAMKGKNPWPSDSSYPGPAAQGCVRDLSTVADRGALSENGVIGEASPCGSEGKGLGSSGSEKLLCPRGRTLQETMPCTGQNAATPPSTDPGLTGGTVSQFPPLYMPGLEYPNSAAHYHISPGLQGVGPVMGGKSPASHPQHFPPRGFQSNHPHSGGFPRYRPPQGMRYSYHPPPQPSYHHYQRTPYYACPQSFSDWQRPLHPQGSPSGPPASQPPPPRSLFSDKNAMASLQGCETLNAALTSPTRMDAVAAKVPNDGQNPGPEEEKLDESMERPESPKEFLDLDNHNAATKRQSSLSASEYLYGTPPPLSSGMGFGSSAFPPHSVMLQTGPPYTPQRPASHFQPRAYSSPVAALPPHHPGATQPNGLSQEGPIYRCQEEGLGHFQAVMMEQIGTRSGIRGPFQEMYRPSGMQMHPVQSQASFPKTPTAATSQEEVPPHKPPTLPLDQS
Histone acetyltransferase KAT2B, sequence (Q92831 whole entry, looked up): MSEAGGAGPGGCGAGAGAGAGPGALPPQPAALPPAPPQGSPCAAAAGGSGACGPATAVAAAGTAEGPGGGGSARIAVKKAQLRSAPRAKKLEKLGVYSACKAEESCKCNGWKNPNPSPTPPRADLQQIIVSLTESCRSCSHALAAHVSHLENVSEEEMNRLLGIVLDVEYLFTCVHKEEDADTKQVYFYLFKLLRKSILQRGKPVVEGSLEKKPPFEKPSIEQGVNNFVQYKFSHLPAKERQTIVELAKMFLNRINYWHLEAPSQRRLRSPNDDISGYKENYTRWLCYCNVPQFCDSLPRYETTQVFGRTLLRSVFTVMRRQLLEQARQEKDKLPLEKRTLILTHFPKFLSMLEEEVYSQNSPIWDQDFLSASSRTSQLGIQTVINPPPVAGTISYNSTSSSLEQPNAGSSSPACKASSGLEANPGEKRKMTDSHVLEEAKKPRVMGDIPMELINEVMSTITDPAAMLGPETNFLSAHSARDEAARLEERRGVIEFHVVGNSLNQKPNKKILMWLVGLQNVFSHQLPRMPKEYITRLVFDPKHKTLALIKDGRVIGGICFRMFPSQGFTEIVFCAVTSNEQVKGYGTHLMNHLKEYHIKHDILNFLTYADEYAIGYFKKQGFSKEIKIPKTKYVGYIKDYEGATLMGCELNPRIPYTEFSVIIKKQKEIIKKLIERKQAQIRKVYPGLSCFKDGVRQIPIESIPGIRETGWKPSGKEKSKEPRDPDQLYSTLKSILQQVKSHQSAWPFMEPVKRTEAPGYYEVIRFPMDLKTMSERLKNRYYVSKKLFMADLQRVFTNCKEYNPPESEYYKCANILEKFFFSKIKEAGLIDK
Bromodomain and PHD finger-containing protein 3 (Homo sapiens), sequence (Q9ULD4 whole entry): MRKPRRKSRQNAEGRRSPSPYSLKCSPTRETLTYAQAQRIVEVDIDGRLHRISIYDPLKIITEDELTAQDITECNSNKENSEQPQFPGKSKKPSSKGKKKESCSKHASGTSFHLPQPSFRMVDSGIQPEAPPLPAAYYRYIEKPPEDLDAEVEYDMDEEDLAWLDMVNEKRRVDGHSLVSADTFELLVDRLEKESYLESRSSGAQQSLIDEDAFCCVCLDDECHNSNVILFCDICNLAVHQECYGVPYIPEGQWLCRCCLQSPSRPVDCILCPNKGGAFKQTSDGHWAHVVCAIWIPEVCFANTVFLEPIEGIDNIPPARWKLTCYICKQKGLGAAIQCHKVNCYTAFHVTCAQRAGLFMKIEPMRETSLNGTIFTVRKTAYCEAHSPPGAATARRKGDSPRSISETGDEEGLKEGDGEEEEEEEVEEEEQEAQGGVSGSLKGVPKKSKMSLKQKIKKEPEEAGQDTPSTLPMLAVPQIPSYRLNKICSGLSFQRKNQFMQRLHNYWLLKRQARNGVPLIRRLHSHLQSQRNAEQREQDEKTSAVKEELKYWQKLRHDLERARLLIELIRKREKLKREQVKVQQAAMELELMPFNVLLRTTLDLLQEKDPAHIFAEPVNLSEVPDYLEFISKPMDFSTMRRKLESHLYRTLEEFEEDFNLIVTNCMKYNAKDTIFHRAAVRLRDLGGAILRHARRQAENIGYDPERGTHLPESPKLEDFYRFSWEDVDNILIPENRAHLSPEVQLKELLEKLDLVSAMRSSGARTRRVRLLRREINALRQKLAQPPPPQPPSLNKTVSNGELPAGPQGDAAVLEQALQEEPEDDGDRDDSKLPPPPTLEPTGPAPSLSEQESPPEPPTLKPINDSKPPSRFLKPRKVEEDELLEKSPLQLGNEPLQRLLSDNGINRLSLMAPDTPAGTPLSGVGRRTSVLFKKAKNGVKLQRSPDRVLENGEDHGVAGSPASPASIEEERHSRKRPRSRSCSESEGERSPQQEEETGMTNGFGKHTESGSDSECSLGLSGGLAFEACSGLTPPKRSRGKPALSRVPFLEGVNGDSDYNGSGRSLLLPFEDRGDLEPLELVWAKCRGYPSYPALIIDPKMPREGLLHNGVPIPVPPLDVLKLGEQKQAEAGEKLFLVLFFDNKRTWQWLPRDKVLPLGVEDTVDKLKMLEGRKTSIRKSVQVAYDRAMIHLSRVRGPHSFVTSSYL

With `Cc1nnc2c(NC3CCN(CC(C)(C)F)CC3)cc(C(=O)N3[C@@H]4c5ccccc5C[C@H]3C(=O)N[C@@H]4C(C)C)nn12`, the half-maximal inhibitory concentration (IC50) in assay [1] is 50.1 nM. Further, the Activity is 73% in assay [2], 66% in assay [3], 62% in assay [4] and 36% in assay [5]. Besides, the Kd in assay [6] is greater than 316 nM; in assay [7], greater than 3160 nM.
